We go through five compounds from patent US4663458A, “Water soluble salt composition of m-AMSA” (Bristol-Myers Company, priority 1985, dated 1987).

What is called solubility is the concentration that dissolves in the medium under given conditions.

Where a name gives a salt, the structure may show the parent alone.

A short description of data set [1]: Storage stability / precipitation of m-AMSA lactate aqueous solutions.
A short description of data set [2]: Aqueous solubility of m-AMSA base and salts.
For data set [3] the following is noted: prior art; cited from earlier work.
The next data set has as its system animal tumor systems. Conditions: Cain et al., Europ. J. Cancer 10:539-549 (1974); cited from earlier work.

For `COc1cc(NS(C)(=O)=O)ccc1Nc1c2ccccc2nc2ccccc12` [m-AMSA L(+)-lactate monohydrate salt], the stability entry in data set [1] (for use as an intravenous drug) was “the stability necessary for use as an intravenous drug”. The reconstitution rates result in data set [2] is listed as “excellent”. In data set [2] (water), the solubility is roughly 2500 µg/mL.
Consider `COc1cc(NS(C)(=O)=O)ccc1Nc1c2ccccc2nc2ccccc12` [m-AMSA lactate salts], for which the “precipitation under extended storage” value in data set [1] (concentrations as high as 5 mg/ml, extended storage at 24° C.) is recorded as “can result in precipitates”.
On to `COc1cc(NS(C)(=O)=O)ccc1Nc1c2ccccc2nc2ccccc12` [m-AMSA, 4'9-(acridinylamino) methanesulfon-m-anisidide], for which, in data set [3], the solubility in water entry was “very limited solubility in water”. In the data set with animal tumor systems, the antitumor activity result is “significant antitumor activity”.
For the compound `COc1cc(NS(C)(=O)=O)ccc1Nc1c2ccccc2nc2ccccc12` [monohydrochloride], in data set [3], the solubility in water result is “insufficiently water-soluble”.
For the compound `COc1cc(NS(C)(=O)=O)ccc1Nc1c2ccccc2nc2ccccc12` [monomethanesulfonate], in data set [3], the solubility in water entry was “insufficiently water-soluble”.
